Patent US9642860B2, “Combinations of corroles and statins” (Technion Research & Development Foundation Limited, priority 2011, dated 2017)
Each block holds one compound with its values, some of them ahead of it.

Experiments:
[1] = tested on: J774.A1 macrophages; assay: Cholesterol biosynthesis model: acetate incorporation into cholesterol in macrophages; format: cell-based, Murine; settings: 24 h incubation
Excerpt: Accumulation of cholesterol within arterial macrophages is a step in the development of atherosclerosis (M. Aviram 2004). Statins can lower the levels of cholesterol biosynthesis in arterial macrophages. The cholesterol biosynthesis model which was employed determined the effect of various agents (pravastatin alone, fluvastatin alone, 1-Fe alone in various concentrations, 1-Fe in combination with pravastatin and 1-Fe in combination with fluvastatin) on reduction of cholesterol biosynthesis in macrophages.
Murine J774.A1 macrophages were cultured in DMEM (Dulbecco's Modified Eagle Medium) containing 5% FCS (fetal calf serum) in a humidified incubator. […] The effect of different concentrations of 1-Fe on cholesterol biosynthesis from acetate and on 1-Fe cellular uptake were determined by incubating J774.A1 macrophages for 24 h (hours) with 0, 5, 20 or 50 μM (micromolar) of 1-Fe. Intracellular corrole concentrations were then determined by a chemiluminescent method, and cholesterol biosynthesis was assayed by measuring acetate incorporation into cholesterol. […] Unesterified cholesterol spots were visualized by iodine vapor (using appropriate standard), scraped into scintillation vials and counted in a β-counter. 0.1 M (molar) NaOH (sodium hydroxide) was added to the remains of the cells, and cellular proteins were measured the following day by the Lowry method. […]

[2] = molecular target: T1, HMG-CoA reductase (HMGCR) (Homo sapiens, UniProt P04035); assay: HMG-CoA reductase-catalyzed reaction inhibition (CoA byproduct by HPLC); format: biochemical; settings: read-out: Inhibition Percent
T1 sequence (P04035 426-888 limits assumed): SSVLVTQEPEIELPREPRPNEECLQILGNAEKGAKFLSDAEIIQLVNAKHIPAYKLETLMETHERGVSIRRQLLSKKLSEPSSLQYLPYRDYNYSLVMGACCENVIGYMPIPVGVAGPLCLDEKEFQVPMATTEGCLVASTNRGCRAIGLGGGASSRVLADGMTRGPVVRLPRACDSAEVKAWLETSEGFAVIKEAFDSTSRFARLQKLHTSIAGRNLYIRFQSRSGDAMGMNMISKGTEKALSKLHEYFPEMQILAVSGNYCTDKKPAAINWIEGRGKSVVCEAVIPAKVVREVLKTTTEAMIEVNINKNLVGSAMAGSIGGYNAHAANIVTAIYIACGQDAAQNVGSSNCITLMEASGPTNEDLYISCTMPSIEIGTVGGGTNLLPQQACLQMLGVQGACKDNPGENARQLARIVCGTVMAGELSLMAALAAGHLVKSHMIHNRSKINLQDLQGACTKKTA
Procedure: The effects of 1-Fe and statins fluvastatin and pravastatin alone and in combination on mevalonic acid production were tested using the following in vitro method.
Substrates of the HMGCR catalyzed reaction, NADPH (400 μM] and HMGCR (200 μM) were mixed in activity buffer comprising 100 mM sodium phosphate buffer, 1 mM ethylenediaminetetraacetic acid (EDTA), 10 mM dithiothreitol, 2% dimethyl sulfoxide, and 1 mM magnesium sulphate, the mixture having a pH of 6.8. 1-Fe, PS, or FS (alone or as a corrole statin combination) were added to the substrate mixture at various concentrations, followed by addition of HMGCR (0.48 μM). Reactions were then incubated at 37° C. for 15 minutes, followed by injection of 80 μl (microliter) to a reverse phase GraceSmart RP18 high performance liquid chromatography column (HPLC). […] As mevalonate concentration is difficult to identify in reaction mixture because it has no absorbance in the UV range, the yield of each reaction was calculated from the amount of CoA byproduct formed in the reaction after subtracting the baseline amount of CoA present as an impurity in the commercial HMG-CoA determined by injecting the substrate mixture alone. The inhibition percentage was calculated from the yield of each reaction relative to the yield of the enzymatic reaction without the addition of inhibitor.

[3] = high dose 80 mg, over five years, compared to moderate dose statins; cited from earlier work

Compound: CC[C@H](C)C(=O)O[C@H]1C[C@H](O)C=C2C=C[C@H](C)[C@H](CC[C@@H](O)C[C@@H](O)CC(=O)O)[C@H]21 [PS, pravastatin]
- reduction of macrophage biosynthesis of cholesterol ([1]; 200 μM PS alone): 10%
- inhibition at 5 µM ([2]; PS 5 micromolar alone): 17%

Compound: CC(C)c1c(C(=O)Nc2ccccc2)c(-c2ccccc2)c(-c2ccc(F)cc2)n1CC[C@@H](O)C[C@@H](O)CC(=O)O [atorvastatin]
- increase in the chance of developing Type 2 diabetes [3]: 12%

- inhibition at 1 µM ([2]; FS 1 micromolar alone): 9%
Compound: CC(C)n1c(/C=C/C(O)CC(O)CC(=O)O)c(-c2ccc(F)cc2)c2ccccc21 (centres unmarked) [FS, fluvastatin]
- reduction of macrophage biosynthesis of cholesterol ([1]; 20 μM FS alone): 25%
